{
  "source": "BindingDB's records for patent US12390472",
  "about": "(Evopoint Biosciences, 2025)",
  "target": "Histone-lysine N-methyltransferase EZH2 [Y641N] (UniProt Q15910, Y641N)",
  "sequence (Q15910 whole entry Y641N)": "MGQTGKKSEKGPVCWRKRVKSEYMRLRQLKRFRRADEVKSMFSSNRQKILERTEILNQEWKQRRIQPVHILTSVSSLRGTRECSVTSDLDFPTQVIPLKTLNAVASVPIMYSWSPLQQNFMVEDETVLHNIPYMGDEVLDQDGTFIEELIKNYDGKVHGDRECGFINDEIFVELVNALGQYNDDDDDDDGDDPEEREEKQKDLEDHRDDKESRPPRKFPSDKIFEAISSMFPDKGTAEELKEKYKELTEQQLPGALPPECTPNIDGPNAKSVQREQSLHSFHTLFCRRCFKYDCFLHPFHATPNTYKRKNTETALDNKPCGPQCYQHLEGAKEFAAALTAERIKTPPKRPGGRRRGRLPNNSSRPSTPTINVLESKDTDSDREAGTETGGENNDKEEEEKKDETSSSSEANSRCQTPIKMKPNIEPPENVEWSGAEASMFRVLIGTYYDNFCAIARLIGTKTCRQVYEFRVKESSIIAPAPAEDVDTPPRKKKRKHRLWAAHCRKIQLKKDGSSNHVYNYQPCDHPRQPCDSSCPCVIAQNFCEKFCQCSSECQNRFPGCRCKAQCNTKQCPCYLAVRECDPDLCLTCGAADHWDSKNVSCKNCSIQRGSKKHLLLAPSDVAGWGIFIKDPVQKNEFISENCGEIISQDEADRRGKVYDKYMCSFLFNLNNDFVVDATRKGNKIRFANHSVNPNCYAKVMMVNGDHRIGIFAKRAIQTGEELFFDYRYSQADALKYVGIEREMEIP",
  "test": "Test on EZH2 (Y641F) and EZH2 (Y641N) Inhibitory Activities",
  "description": "ProceduresCompounds at different concentrations were dissolved in 100% DMSO and transferred to test plates, and the final concentration of DMSO was 1%. Enzyme solution and substrate SAM solution were prepared with 1-fold reaction buffer (optimized Tris buffer). 5 uL of enzyme solution was added to the test plate and wells only added with 5 uL of reaction buffer were used as negative control wells. […] 5 uL of receptor solution was added and the plate was incubated away from light at room temperature for 60 min. 10 uL of donor solution was added and the plate was incubated away from light at room temperature for 30 min. The endpoint values were read on the Envision and the IC50 was calculated.Data CalculationData were fitted by GraphPad Prism 5 software and inhibition rate was calculated according to equation (1)Inh %=(Max−Signal)/(Max−Min)×100 (1)IC50 was calculated using equation (2)Y=Bottom+(Top−Bottom)/(1+10^((Log IC 50 −X)×Hill Slope))Y: inhibition rate; X: concentration of the compound",
  "data": [
    {"compound": "CCN(c1cc(O[C@H]2C[C@H](N3CCCCC3)C2)cc(C(=O)NCc2c(CO)cc(C)[nH]c2=O)c1C)C1CCC(F)(F)CC1", "note": "[US12390472, Example 95]", "values": [
      {"measurement": "IC50", "value": 3.1, "unit": "nM"}
    ]}
  ]
}
